According to publication PMC4726324, “Rational steering of insulin binding specificity by intra-chain chemical crosslinking” (Scientific Reports, 2016):
Where two headings read alike, the source gives them in different places.

Details: triazole bond
[1] = the molecule shown is the open-chain precursor, 17-membered ring, CuSO4/ascorbic acid, H2O/tBuOH 2:1, 0.08 mM, 25.0 °C

cyclo[GB23-G-F-(NMe)A-Nva(δN3)-P-Prg-TB30]
ring closure, yield after HPLC (14-membered ring, Cu(I)/TBTA): 49%

H-Gly-Gly-Phe-Tyr-Nva(δN3)-Pro-Prg-Thr-OH?
ring closure, yield after HPLC (the molecule shown is the open-chain precursor, 14-membered ring, CuSO4/ascorbic acid, H2O/tBuOH 2:1, 0.08 mM, 25.0 °C): 52%

H-Gly-Gly-Phe-Nva(δN3)-Thr-Pro-Prg-Thr-OH?
ring closure, yield after HPLC [1]: 36%

H-Gly-Phe-Phe-Tyr-Nva(δN3)-Pro-Prg-Thr-OH?
ring closure, yield after HPLC (the molecule shown is the open-chain precursor, 14-membered ring, CuSO4/ascorbic acid, H2O/tBuOH 2:1, 25.0 °C): 37%

H-Gly-Phe-Phe-Prg-Thr-Pro-Nva(δN3)-Thr-OH?
ring closure, yield after HPLC [1]: 45%

H-Gly-Phe-Phe-Nva(δN3)-Thr-Pro-Prg-Thr-OH
ring closure, yield after HPLC [1]: 40%
